Laboratory results as given in EP0006845A1, “Pharmaceutical composition comprising a 5-aroyl-1-C1-5 alkyl-pyrrole-2-acetic acid compound and acetaminophen or acetylsalicylic acid” (McNeilab, Inc., priority 1978, dated 1980).

What was measured:
[1] = tested on: adjuvant arthritic rats; assay: adjuvant arthritis test, evaluation of paw volume of the non-injected hind paw; assay type: in vivo, female Wistar, Lewis rats
Source text: (§1) The efficacy of the novel combination of this invention in inhibiting inflammation and osteogenic degeneration is particularly seen in the adjuvant arthritis test. […] The adjuvant arthritis test, a test in which adjuvant arthritis which results both in inflammation and osteogenic changes is induced by Mycobacterium butvricum and in which the effect of the test compounds on each effect can be Determined, is considered to be .most useful for evaluation of compounds which may be suitable for the treatment of rheumatoid arthritis and other arthritic diseases. The test procedure, in which the effect on inflammation is determined by paw volume changes and the effect on osteogenic changes is determined by microscopic observation, is described by Wong et al, in J. Pharmacol.Exp.Ther. 185, 127-138, 1973, and is employed in the present determination of the potentiation of the antiarthritic properties of 5-aroyl-l-loweralkyl-pyrrole-2-acetic acid derivatives by aspirin or acetaminophen.
(§2) Briefly, in this procedure, adjuvant arthritis is induced in female Wistar, Lewis rats (Charles River Breeding Laboratories. Inc., Wiimington, Mass.) weighing 160-190 gm by a single subcutaneous injection of 0.75 mg Mycobacterium butyricum (Difco) into the left hind paw. The non-injected hind paw remains a normal size for the first seven days. Swelling begins to appear in the non-injected paw of the first rats on Day 8. Using the paw volume determination technique (a technique in which rat paws are dippedin mercury to the hairline and the volume of displacement determined by a modified Van Arman mercury displacement method as described in the aforementioned paper of Wong et al), the time progress curve of volume changes in the non-injected (contralateral) paw is followed. […] The mean onset time for 100 rats is found to be 11.6 days with a standard deviation of 1.9 days and the frequency of onset time values distributed normally between Days 8 and 19. Thus, determinations of antiarthritic activity are made in the period Day 11 to Day 28.
(§3) For determination of anti-inflammatory properties two different evaluations are made: (a) the evaluation of paw volume during the Phase II and Phase III periods and, (b) the evaluation of osteogenic (bone) degenration during the Phase IV period.
For evaluation of paw volume, adjuvant arthritic rats with early but significant signs of arthritis in the contralateral paw are selected on Day 11 and randomly assigned to the various groups of 10 animals in each group. All test -animals are dosed-daily (per os) with the test compound, preferably as sodium salt, or in saline for 17 days (Days 11 to 27 inclusive). Control animals are dosed with an equivalent volume of saline. The paw volumes of the non-injected paws are determined initially on Day 11 and again on Days 15, 18, 22, 25, and 28. The paw volumes are then compared with normal paw volumes of adjuvant arthitic rats previously determined from a reference curve relating normal paw volume to body weight. The volume of each individual rat which is greater than the normal volume is utilized in the analysis of the data. Values for drug treated animals are expressed as a percent inhibition of the paw volume change relative to the mean value for saline controls. Data is evaluated statistically and ED50 values with 95 percent confidence limits are calculated. The method for statistical analysis is described in detail in the aforementioned paper of Wong et al. The term "ED50" refers to the dose of drug required to produce 50 percent antagonism of the paw volume changes observed in the saline treated adjuvant arthritis controls. Suppression of paw volume changes reflects anti-inflammatory and antiarthritic activity of a test drug.

[2] = tested on: adjuvant arthritic rats; assay: adjuvant arthritis test, evaluation of bone degeneration (osteogenic changes) in the non-injected hind paw; assay type: in vivo, female Wistar, Lewis rats; conditions: Rattus norvegicus
Source text: as §1, §2, §3
For evaluation of bone degenerations, normal and adjuvant arthritic rats are sacrificed under C02, after the paw volume measurements have been completed on Day 28. The hind legs are removed above the knees and skinned and the soft tissues dissected away with care to avoid injury to bone and articular structures. The leg bones are then immersed in 2 percent potassium hydroxide solution for approximately four to five days until the remaining soft tissues becomes properly macerated and/or transparent, and the bones are fully visible. The leg bones are stained with Alizarin Red (0.01 percent in 2 percent KOH) for eight hours, and then processed through increasing concentrations of glycerol in water (20, 40, 60, 80 and 100 percent) for purposes of clearing the tissues for microscopic observation. The distal end of the tibiae, the tarsals, metatarsals, phalanges, and sesamoids are evaluated under a Stereozoom Microscope (a special type of dissecting microscope, product of Bausch and Lomb).
Osteogenic changes for each bone (in 31 bone categories) in the non-injected hind paw are graded on a scale of from 0 to 10 (increasing numerical value corresponding to increasing severity of bone degeneration). A total bone degeneration score is obtained (maximum score/paw = 310 points) and then expressed as a percent score. The mean percent score (95 percent confidence limits) for saline control groups from 26 experiments (184 animals) is found to be 53.4 (50.9-55.9). Percent score values for drug treated animals are expressed as a percent inhibition relative to the mean for the saline control group. Data is evaluated statistically and ED50 values with 95 percent confidence limits are calculated.

Cc1ccc(C(=O)c2ccc(CC(=O)O)n2C)cc1 [Tolmetin, 1-methyl-5-p-toluoyl-pyrrole-2-acetic acid]
ED50 ([1]; Rattus norvegicus, 672 h, Table IV, ED50 of tolmetin without Aspirin, Day 28, read-out: ED50): 32 mg/kg | inhibition at 5.6 mg/kg ([1]; Rattus norvegicus, 672 h, Tolmetin 5.6 mg/kg/day alone, Day 28, read-out: Percent Inhibition ± S.E. (Day 28)): 30.5 ± 5.1% | inhibition at 11.1 mg/kg ([1]; Rattus norvegicus, 672 h, Tolmetin 11.1 mg/kg/day alone, Day 28, read-out: Percent Inhibition ± S.E. (Day 28)): 34.5 ± 8% | inhibition at 16.7 mg/kg ([1]; Rattus norvegicus, 672 h, Tolmetin 16.7 mg/kg/day alone, Day 28, read-out: Percent Inhibition ± S.E. (Day 28)): 58.4 ± 8.1% | inhibition at 33.3 mg/kg ([1]; Rattus norvegicus, 672 h, Tolmetin 33.3 mg/kg/day alone, Day 28, read-out: Percent Inhibition ± S.E. (Day 28)): 50.8 ± 8.4% | inhibition at 50 mg/kg ([1]; Rattus norvegicus, 672 h, Tolmetin 50 mg/kg/day alone, Day 28, read-out: Percent Inhibition ± S.E. (Day 28)): 62.6 ± 2.7% | inhibition at 100 mg/kg ([1]; Rattus norvegicus, 672 h, Tolmetin 100 mg/kg/day alone, Day 28, read-out: Percent Inhibition ± S.E. (Day 28)): 66.4 ± 3.9% | ED50 ([1]; Rattus norvegicus, Table II, tolmetin without acetaminophen, read-out: ED50 values of Tolmetin): 32 mg/kg | inhibition at 7.5 mg/kg ([1]; Rattus norvegicus, Tolmetin 7.5 mg/kg/day alone, read-out: Percent Inhibition of Paw Volume ± S.E.): 37.8 ± 8.8% | inhibition at 30 mg/kg ([1]; Rattus norvegicus, Tolmetin 30.0 mg/kg/day alone, read-out: Percent Inhibition of Paw Volume ± S.E.): 49.3 ± 9.7% | inhibition at 120 mg/kg ([1]; Rattus norvegicus, Tolmetin 120.0 mg/kg/day alone, read-out: Percent Inhibition of Paw Volume ± S.E.): 78.4 ± 3% | ED50 ([1]; Rattus norvegicus, po, 360 h, drug given alone per os, Day 15, read-out: ED50 Values and 95 Percent C.L.): 42.1 mg/kg | ED50 ([1]; Rattus norvegicus, po, 432 h, drug given alone per os, Day 18, read-out: ED50 Values and 95 Percent C.L.): 40.6 mg/kg | ED50 ([1]; Rattus norvegicus, po, 528 h, drug given alone per os, Day 22, read-out: ED50 Values and 95 Percent C.L.): 32.4 mg/kg | ED50 ([1]; Rattus norvegicus, po, 600 h, drug given alone per os, Day 25, read-out: ED50 Values and 95 Percent C.L.): 29.5 mg/kg | ED50 ([1]; Rattus norvegicus, po, 672 h, drug given alone per os, Day 28, read-out: ED50 Values and 95 Percent C.L.): 26.4 mg/kg | ED50 Values and 95 Percent C.L. ([1]; drug given alone per os, Day 28, 40320 min): 26.4 (22.3 - 29.6) mg/kg/day | inhibition at 7.5 mg/kg ([2]; Tolmetin 7.5 mg/kg/day alone, read-out: Percent Inhibition of Bone Degeneration ± S.E.): 18.6 ± 6.9% | inhibition at 30 mg/kg ([2]; Tolmetin 30.0 mg/kg/day alone, read-out: Percent Inhibition of Bone Degeneration ± S.E.): 26.3 ± 3.7% | inhibition at 120 mg/kg ([2]; Tolmetin 120.0 mg/kg/day alone, read-out: Percent Inhibition of Bone Degeneration ± S.E.): 51.7 ± 6.4% | inhibition at 5.6 mg/kg ([2]; bone degeneration, Tolmetin 5.6 mg/kg/day alone, read-out: Percent Inhibition ± S. E.): 26.6 ± 7% | inhibition at 11.1 mg/kg ([2]; bone degeneration, Tolmetin 11.1 mg/kg/day alone, read-out: Percent Inhibition ± S. E.): 28.7 ± 7.7% | inhibition at 16.7 mg/kg ([2]; bone degeneration, Tolmetin 16.7 mg/kg/day alone, read-out: Percent Inhibition ± S. E.): 27.5 ± 4.9% | inhibition at 33.3 mg/kg ([2]; bone degeneration, Tolmetin 33.3 mg/kg/day alone, read-out: Percent Inhibition ± S. E.): 33.4 ± 3.9% | inhibition at 50 mg/kg ([2]; bone degeneration, Tolmetin 50.0 mg/kg/day alone, read-out: Percent Inhibition ± S. E.): 34.9 ± 2.7% | inhibition at 100 mg/kg ([2]; bone degeneration, Tolmetin 100 mg/kg/day alone, read-out: Percent Inhibition ± S. E.): 54.2 ± 1.9% | ED50 ([2]; Table III, ED50 of tolmetin without acetaminophen, read-out: ED50 values): 110 mg/kg | ED50 ([2]; Table V, ED50 of tolmetin without Aspirin, read-out: ED50): 89.7 mg/kg | ED50 ([2]; drug alone, suppression of osteogenic changes, data from several experiments pooled, read-out: ED50 and 95 percent C.L.): 110 mg/kg
